# Data as given in patent publication US20250353833A1, “DPP9 BINDING COMPOUNDS” (UNIVERSITEIT ANTWERPEN, priority 2022, published 2025).
# Read-outs that look alike come from different tables or passages of the source.
# Key:
# DPP8 = DPP8 (Homo sapiens (Human), UniProt Q6V1X1); assay: DPP8 enzyme inhibition, IC50 measurement (Ala-Pro-pNA release); format: biochemical
# Method: (§1) IC50 measurements. […] The Magellan software was used to process the data, which was then fitted using a non-linear fit model in GraFit 7. […] As a blank, the assay buffer was used instead of the enzyme. Screening measurements were carried out in duplo and IC50 values were determined in triplo with at least eight different inhibitor concentrations as described by Van Goethem et al.
# DPP9 = DPP9 (Homo sapiens (Human), UniProt Q86TI2); assay: DPP9 enzyme inhibition, IC50 measurement (Ala-Pro-pNA release); format: biochemical; conditions: for SI DPP9/8 / SI DPP9/DPP8: selectivity index; for SI DPP9/8: DPP8 IC50 over DPP9 IC50
# Chain of DPP9 (Q86TI2 whole entry): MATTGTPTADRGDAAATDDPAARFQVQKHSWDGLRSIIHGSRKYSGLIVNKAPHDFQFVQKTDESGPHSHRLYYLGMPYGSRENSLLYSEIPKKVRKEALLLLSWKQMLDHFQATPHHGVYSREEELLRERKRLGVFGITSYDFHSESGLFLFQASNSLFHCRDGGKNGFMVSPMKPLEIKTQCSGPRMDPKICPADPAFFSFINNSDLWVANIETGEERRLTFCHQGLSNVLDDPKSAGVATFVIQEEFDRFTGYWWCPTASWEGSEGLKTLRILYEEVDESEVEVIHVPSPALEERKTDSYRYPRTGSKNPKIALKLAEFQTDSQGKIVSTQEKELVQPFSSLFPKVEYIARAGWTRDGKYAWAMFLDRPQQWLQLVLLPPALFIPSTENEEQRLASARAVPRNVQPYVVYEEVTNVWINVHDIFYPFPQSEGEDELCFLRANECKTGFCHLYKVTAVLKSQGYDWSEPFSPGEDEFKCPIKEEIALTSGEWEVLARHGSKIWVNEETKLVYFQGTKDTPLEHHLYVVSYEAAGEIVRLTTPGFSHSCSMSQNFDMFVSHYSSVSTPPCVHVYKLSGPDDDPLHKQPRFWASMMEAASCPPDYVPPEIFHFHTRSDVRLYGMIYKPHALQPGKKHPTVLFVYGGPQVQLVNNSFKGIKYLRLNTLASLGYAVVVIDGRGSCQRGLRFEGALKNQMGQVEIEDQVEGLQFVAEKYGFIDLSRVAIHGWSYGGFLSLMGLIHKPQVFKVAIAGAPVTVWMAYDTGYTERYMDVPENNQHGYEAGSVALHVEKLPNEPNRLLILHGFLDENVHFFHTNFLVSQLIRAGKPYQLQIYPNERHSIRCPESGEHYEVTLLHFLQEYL
# Method: DPP4 was purified from human seminal plasma as described previously.^[3]
# as §1
# [1] = Table 3, mean ± SD (n = 3), read-out: DPP8 IC50 ± SD
# [2] = Table 3, mean ± SD (n = 3), read-out: DPP9 IC50 ± SD
# [3] = Table 4, standard method, read-out: IC50 DPP8
# [4] = Table 4, standard method, read-out: IC50 DPP9
# Chain of DPP8 (Q6V1X1 whole entry): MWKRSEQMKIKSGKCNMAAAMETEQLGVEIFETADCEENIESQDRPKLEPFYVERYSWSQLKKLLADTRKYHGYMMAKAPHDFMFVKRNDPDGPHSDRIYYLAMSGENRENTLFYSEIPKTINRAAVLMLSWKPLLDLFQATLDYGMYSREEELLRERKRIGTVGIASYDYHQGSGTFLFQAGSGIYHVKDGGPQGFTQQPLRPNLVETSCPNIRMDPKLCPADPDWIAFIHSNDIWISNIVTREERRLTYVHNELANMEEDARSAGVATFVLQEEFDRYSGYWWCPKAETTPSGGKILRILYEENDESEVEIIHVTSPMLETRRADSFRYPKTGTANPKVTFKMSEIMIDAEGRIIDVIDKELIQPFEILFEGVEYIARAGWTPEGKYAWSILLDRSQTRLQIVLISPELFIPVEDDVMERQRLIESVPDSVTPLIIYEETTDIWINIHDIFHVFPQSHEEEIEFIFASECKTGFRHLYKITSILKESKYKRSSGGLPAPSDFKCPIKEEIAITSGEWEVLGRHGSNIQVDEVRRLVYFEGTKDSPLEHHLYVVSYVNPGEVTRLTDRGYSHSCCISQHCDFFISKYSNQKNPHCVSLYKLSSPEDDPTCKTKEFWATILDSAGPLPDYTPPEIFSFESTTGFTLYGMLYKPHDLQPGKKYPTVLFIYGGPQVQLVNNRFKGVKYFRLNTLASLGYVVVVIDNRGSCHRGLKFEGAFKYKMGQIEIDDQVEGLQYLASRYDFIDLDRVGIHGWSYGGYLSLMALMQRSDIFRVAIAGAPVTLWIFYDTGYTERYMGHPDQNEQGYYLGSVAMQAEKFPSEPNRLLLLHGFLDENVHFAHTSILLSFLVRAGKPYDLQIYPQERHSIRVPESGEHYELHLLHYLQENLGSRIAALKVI
Compound,IC50 (DPP8; [1]) [nM],IC50 (DPP9; [2]) [nM],SI DPP9/8 (DPP9; Table 3),IC50 (DPP8; [3]) [nM],SI DPP9/DPP8 (DPP9; Table 4),IC50 (DPP9; [4]) [nM]
"O=C(CCCCC1SCC2NC(=O)NC21)NCCOCCOCCOCCNC(=O)NC12CC3CC(CC(NCC(=O)N4Cc5ccc(F)cc5C4)(C3)C1)C2 (stereo not drawn) [Compound 75, N-(1-((3-((2-(5-fluoroisoindolin-2-yl)-2-oxoethyl)amino)adamantan-1-yl)amino)-1-oxo-5,8,11-trioxa-2-azatridecan-13-yl)-5-(2-oxohexahydro-1H-thieno[3,4-d]imidazol-4-yl)pentanamide]",495 ± 72,43,12,–,–,–
"COC(=O)[C@H](Cc1c[nH]c2ccccc12)NC(=O)OC12CC3CC(CC(NCC(=O)N4Cc5ccc(F)cc5C4)(C3)C1)C2 [Compound 60, Methyl (((3-((2-(5-fluoroisoindolin-2-yl)-2-oxoethyl)amino)adamantan-1-yl)oxy)carbonyl)-L-tryptophanate]",689 ± 32.3,43.8,15.7,–,–,–
Lithium (((3-((2-(5-fluoroisoindolin-2-yl)-2-oxoethyl)amino)adamantan-1-yl)oxy)carbonyl)glycine [Compound 54],243 ± 46.4,8.88,27.4,–,–,–
"CC(C)(C)CC(=O)NC12CC3CC(CC(NCC(=O)N4Cc5cc(F)c(F)cc5C4)(C3)C1)C2 [Compound 86, N-((1s,3r,5R,7S)-3-((2-(5,6-difluoroisoindolin-2-yl)-2-oxoethyl)amino)adamantan-1-yl)-3,3-dimethylbutanamide]",–,–,–,1300 ± 127,22,58
"O=C(NCc1ccncc1)OC12CC3CC(CC(NCC(=O)N4Cc5ccccc5C4)(C3)C1)C2 [Compound 37, 3-((2-(isoindolin-2-yl)-2-oxoethyl)amino)adamantan-1-yl (pyridin-4-ylmethyl)carbamate]",1110 ± 335,90.8 ± 13.5,12.2,–,–,–
"O=C(NCCCC[C@H](NC(=O)OC12CC3CC(CC(NCC(=O)N4Cc5ccccc5C4)(C3)C1)C2)C(=O)O)OCc1ccccc1 [Compound 34, N^6-((benzyloxy)carbonyl)-N^2-(((3-((2-(isoindolin-2-yl)-2-oxoethyl)amino)adamantan-1-yl)oxy)carbonyl)-L-lysine]",39.4,1.74,22.5,–,–,–
"O=C(NC12CC3CC(CC(C3)C1)C2)NC12CC3CC(CC(NCC(=O)N4Cc5ccccc5C4)(C3)C1)C2 [Compound 41, 1-(adamantan-1-yl)-3-(3-((2-(isoindolin-2-yl)-2-oxoethyl)amino)adamantan-1-yl)urea]",592 ± 87.7,32.8,18.0,–,–,–
"O=C(CNC12CC3CC(C1)CC(NCc1ccc(-c4ccccc4)cc1)(C3)C2)N1Cc2ccccc2C1 [Compound 27, 2-((3-(([1,1′-biphenyl]-4-ylmethyl)amino)adamantan-1-yl)amino)-1-(isoindolin-2-yl)ethan-1-one]",1540 ± 101,93.2 ± 39,16.5,–,–,–
"COC(=O)[C@H](C)NC(=O)OC12CC3CC(CC(NCC(=O)N4Cc5ccc(F)cc5C4)(C3)C1)C2 [Compound 62, Methyl (((3-((2-(5-fluoroisoindolin-2-yl)-2-oxoethyl)amino)adamantan-1-yl)oxy)carbonyl)-L-alaninate]",1290 ± 186,93.8 ± 17.3,13.8,–,–,–
lithium (((3-((2-(5-fluoroisoindolin-2-yl)-2-oxoethyl)amino)adamantan-1-yl)oxy)carbonyl)-L-tryptophanate [Compound 56],2080 ± 184,94.6,22.0,–,–,–
O=C(N[C@@H](Cc1c[nH]c2ccccc12)C(=O)O)OC12CC3CC(CC(NCC(=O)N4Cc5ccc(F)cc5C4)(C3)C1)C2,164,6.55,25.0,–,–,–
"NC12CC3CC(C1)CC(NCC(=O)N1Cc4ccc(F)cc4C1)(C3)C2 [Compound 47, 2-((3-aminoadamantan-1-yl)amino)-1-(5-fluoroisoindolin-2-yl)ethan-1-one bis(2,2,2-trifluoroacetate)]",2620 ± 394,259 ± 35.8,10.1,–,–,–
"Cl.O=C(NC12CC3CC(CC(NCC(=O)N4Cc5ccc(F)cc5C4)(C3)C1)C2)c1ccc(-c2cccnc2)cc1 [Compound 88, N-((1s,3r,5R,7S)-3-((2-(5-fluoroisoindolin-2-yl)-2-oxoethyl)amino)adamantan-1-yl)-4-(pyridin-3-yl)benzamide hydrochloride]",–,–,–,51 ± 25,24,2
"O=C1CCC(N2C(=O)c3cccc(NCCOCCOCCOCCNC(=O)NC45CC6CC(CC(NCC(=O)N7Cc8ccc(F)cc8C7)(C6)C4)C5)c3C2=O)C(=O)N1 (stereo not drawn) [Compound 78, 1-(2-(2-(2-(2-((2-(2,6-Dioxopiperidin-3-yl)-1,3-dioxoisoindolin-4-yl)amino)ethoxy)ethoxy)ethoxy)ethyl)-3-(3-((2-(5-fluoroisoindolin-2-yl)-2-oxoethyl)amino)adamantan-1-yl)urea]",79,12,7,–,–,–
3-((2-(isoindolin-2-yl)-2-oxoethyl)amino)adamantan-1-yl tert-pentylcarbamate hydrochloride [Compound 31],4710 ± 1590,378 ± 173,12.5,–,–,–
"O=C(N[C@H]1CC[C@H](O)CC1)OC12CC3CC(CC(NCC(=O)N4Cc5ccccc5C4)(C3)C1)C2 [Compound 35, 3-((2-(isoindolin-2-yl)-2-oxoethyl)amino)adamantan-1-yl ((1r,4R)-4-hydroxycyclohexyl)carbamate]",399 ± 38.8,36.6,10.9,–,–,–
"O=C(NC(c1ccc(F)cc1)c1ccc(F)cc1)OC12CC3CC(CC(NCC(=O)N4Cc5ccccc5C4)(C3)C1)C2 [Compound 32, 3-((2-(isoindolin-2-yl)-2-oxoethyl)amino)adamantan-1-yl (bis(4-fluorophenyl)methyl)carbamate]",667 ± 31.1,47.7,14.0,–,–,–
CC(C)(C)OC(=O)NC12CC3CC(CC(NCC(=O)N4Cc5cc(F)c(F)cc5C4)(C3)C1)C2 [Compound 49],613 ± 154,3.4,180.3,–,–,–
"O=C(NCc1ccccc1)OC12CC3CC(CC(NCC(=O)N4Cc5ccccc5C4)(C3)C1)C2 [Compound 36, 3-((2-(isoindolin-2-yl)-2-oxoethyl)amino)adamantan-1-yl benzylcarbamate]",1150 ± 151,73.8,15.6,–,–,–
"O=C(NC(c1ccccc1)c1ccccc1)OC12CC3CC(CC(NCC(=O)N4Cc5ccccc5C4)(C3)C1)C2 [Compound 33, 3-((2-(isoindolin-2-yl)-2-oxoethyl)amino)adamantan-1-yl benzhydrylcarbamate]",175 ± 33.1,14.3,12.2,–,–,–
Methyl (((3-((2-(5-fluoroisoindolin-2-yl)-2-oxoethyl)amino)adamantan-1-yl)oxy)carbonyl)-L-isoleucinate [Compound 57],2180 ± 345,107,20.4,–,–,–
"N#Cc1ccc(CNC23CC4CC(CC(NCC(=O)N5Cc6ccccc6C5)(C4)C2)C3)cc1 [Compound 26, 4-(((-3-((2-(isoindolin-2-yl)-2-oxoethyl)amino)adamantan-1-yl)amino)methyl)benzonitrile]",672 ± 412,50.6 ± 28.7,13.3,–,–,–
"O=C1CCC(N2C(=O)c3cccc(NCCOCCOC(=O)NC45CC6CC(CC(NCC(=O)N7Cc8ccc(F)cc8C7)(C6)C4)C5)c3C2=O)C(=O)N1 (stereo not drawn) [Compound 76, 2-(2-((2-(2,6-Dioxopiperidin-3-yl)-1,3-dioxoisoindolin-4-yl)amino)ethoxy)ethyl (3-((2-(5-fluoroisoindolin-2-yl)-2-oxoethyl)amino)adamantan-1-yl)carbamate]",8,1.4,6,–,–,–
"Cl.O=C(NC12CC3CC(CC(NCC(=O)N4Cc5ccc(F)cc5C4)(C3)C1)C2)c1ccc(-c2ccncc2)cc1 [Compound 91, N-((1s,3r,5R,7S)-3-((2-(5-fluoroisoindolin-2-yl)-2-oxoethyl)amino)adamantan-1-yl)-4-(pyridin-4-yl)benzamide hydrochloride]",–,–,–,102 ± 28,12,8
"CC(C)(C)NC(=O)NC12CC3CC(CC(NCC(=O)N4Cc5ccccc5C4)(C3)C1)C2.Cl [Compound 40, 1-(tert-butyl)-3-(3-((2-(isoindolin-2-yl)-2-oxoethyl)amino)adamantan-1-yl)urea hydrochloride]",1050 ± 133,51.8 ± 15.7,20.3,–,–,–
"COc1ccc2c(c1)CN(C(=O)CNC13CC4CC(C1)CC(NC(=O)OC(C)(C)C)(C4)C3)C2 [Compound 59, tert-butyl (3-((2-(5-methoxyisoindolin-2-yl)-2-oxoethyl)amino)adamantan-1-yl)carbamate]",5220 ± 321,309 ± 60.4,16.9,–,–,–
"Cl.O=C(NCc1ccccc1)NC12CC3CC(CC(NCC(=O)N4Cc5ccccc5C4)(C3)C1)C2 [Compound 42, 1-benzyl-3-(3-((2-(isoindolin-2-yl)-2-oxoethyl)amino)adamantan-1-yl)urea hydrochloride]",505 ± 25.7,37.8 ± 13.3,13.4,–,–,–
N-(3-((2-(isoindolin-2-yl)-2-oxoethyl)amino)adamantan-1-yl)adamantane-1-carboxamide [Compound 43],5700 ± 1100,186 ± 53.6,30.6,–,–,–
O=C(O)[C@@H]1CCCN1C(=O)OC12CC3CC(CC(NCC(=O)N4Cc5ccc(F)cc5C4)(C3)C1)C2,920 ± 121,8.03,114.6,–,–,–
